From US20220202811A1, “TREATMENT FOR RETINOIC ACID RECEPTOR-RELATED ORPHAN RECEPTOR Ɣ (RORƔ)-DEPENDENT CANCERS” (The Regents of the University of California, priority 2019, published 2022)
“Also recorded” adds a separate entry of the source.

Experiments:
KP^f/fC organoids = test: KP^f/fC organoid culture assay; format: cell-based, mouse
Experimental: Organoids from REM2-KP^f/fC were passaged at ˜1:2 as previously described (Boj et al., 2015). Briefly, organoids were isolated using Cell Recovery Solution (Corning 354253), then dissociated using Accumax Cell Dissociation Solution (Innovative Cell Technologies AM105), and plated in 20 μl matrigel (BD Biosciences, 354230) domes on a pre-warmed 48-well plate. After incubation at 37° C. for 5 min, domes were covered with 300 μl PancreaCult Organoid Growth Media (Stemcell Technologies). […] Organoids were grown in the presence of vehicle or SR2211 for 4 days, then imaged and quantified, n=3 independent wells plated per dose per treatment group.
KP^f/fC organoid were derived from the REM2-KP^f/fC mice, a germline genetically engineered mouse model for pancreatic ductal adenocarcinoma with the genotype of Msi2^eGFP/Kras^LSL-G12D/+; Pdx^CRE/+; p53^f/f. Briefly, tumors from 10-12-week-old end-stage REM2-KP^f/fC mice were harvested and dissociated into a single cell suspension. Tumor cells were stained with FC block then 0.2 μg/10^6 cells anti-EpCAM APC (eBioscience). REM2+/EpCAM+ (stem) and REM2−/EpCAM+ (non-stem) cells were sorted, resuspended in 20 μl Matrigel (BD Biosciences, 354230), and plated as a dome in a pre-warmed 48-well plate. After incubation at 37° C. for 5 min, domes were covered with 300 μl PancreaCult Organoid Growth Media (Stemcell Technologies). Organoids were imaged and quantified 6 days later. All images were acquired on a Zeiss Axiovert 40 CFL. Organoids were counted and measured using ImageJ 1.51s software.
The derived KP^f/fC organoid were maintained and passaged at ˜1:2. Briefly, organoids were isolated using Cell Recovery Solution (Corning 354253), then dissociated using Accumax Cell Dissociation Solution (Innovative Cell Technologies AM105), and plated in 20 μl Matrigel (BD Biosciences, 354230) domes on a pre-warmed 48-well plate. After incubation at 37° C. for 5 min, domes were covered with 300 μl PancreaCult Organoid Growth Media (Stemcell Technologies).
About 4,000 organoids from each of the non-germline and germline mouse models were plated as single cells in multi-well plates, as described above, and treated with JTE-151 for 4 days (FIG. 48). Organoid number and size were analyzed after treatment. […] In the quantification, different doses of JTE-151 were plotted along the horizontal axis, and the volume of organoids was expressed as relative to control along the vertical axis. […] Organoid volume was then analyzed. Different doses of JTE-151 were plotted along the horizontal axis, and the vertical axis represents relative organoid volume to control.

[1] = system: primary patient-derived PDX1535 organoids; test: PDX1535 organoid assay; format: cell-based, human
Experimental: PDX1535 organoids were derived from a patient of pancreatic cancer. Primary patient organoids were established by digesting patient-derived xenografts for 1 hour at 37° C. in RPMI containing 2.5% FBS, 5 mg/ml Collagenase II, and 1.25 mg/ml Dispase II, followed by passage through a […] mesh filter. Cells were plated at a density of 1.5×10^5 cells per 50 μl Matrigel. After domes were solidified, growth medium was added as follows: RPMI containing 50% Wnt3a conditioned media, 10% RSpondin1-conditioned media, 2.5% FBS, 50 ng/ml EGF, 5 mg/ml Insulin, 12.5 ng/ml hydrocortisone, and 14 μM Rho Kinase Inhibitor. After establishment, organoids were passaged and maintained. Briefly, organoids were isolated using Cell Recovery Solution (Corning 354253), then dissociated into single cell suspension with TrypLE Express (ThermoFisher 12604) supplemented with 25 μg/ml DNase I (Roche) and 14 μM Rho Kinase Inhibitor (Y-27632, Sigma). Cells were split 1:2 into 20 μl domes plated on pre-warmed 48-well plates. Domes were incubated at 37° C. for 5 min, then covered with human complete organoid feeding media without Wnt3a-conditioned media. […] The organoids were imaged and measured at the end of treatment. […] Moreover, the anti-cancer effect of JTE-151 was determined in an organoid assay using pancreatic cancer cells derived from mice bearing primary patient-derived xenografts.

[2] = system: tumor-bearing KP^f/fC mice; test: tumor-bearing KP^f/fC mice in vivo (AZD-0284, JTE-151); design: species or system mouse
[3] = system: primary patient-derived PDX1356 organoids; test: PDX1356 organoid assay; format: cell-based, human
Experimental: PDX1535 organoids were derived from a patient of pancreatic cancer. Primary patient organoids were established by digesting patient-derived xenografts for 1 hour at 37° C. in RPMI containing 2.5% FBS, 5 mg/ml Collagenase II, and 1.25 mg/ml Dispase II, followed by passage through a […] mesh filter. Cells were plated at a density of 1.5×10^5 cells per 50 μl Matrigel. After domes were solidified, growth medium was added as follows: RPMI containing 50% Wnt3a conditioned media, 10% RSpondin1-conditioned media, 2.5% FBS, 50 ng/ml EGF, 5 mg/ml Insulin, 12.5 ng/ml hydrocortisone, and 14 μM Rho Kinase Inhibitor. After establishment, organoids were passaged and maintained. Briefly, organoids were isolated using Cell Recovery Solution (Corning 354253), then dissociated into single cell suspension with TrypLE Express (ThermoFisher 12604) supplemented with 25 μg/ml DNase I (Roche) and 14 μM Rho Kinase Inhibitor (Y-27632, Sigma). Cells were split 1:2 into 20 μl domes plated on pre-warmed 48-well plates. Domes were incubated at 37° C. for 5 min, then covered with human complete organoid feeding media without Wnt3a-conditioned media.
As shown in FIGS. 65-66, the anti-cancer effect of JTE-151 was also tested using the organoid assay on primary patient-derived PDX1356 pancreatic cancer cells. […] The volume of organoids was expressed as relative to control.

[4] = system: primary patient-derived organoids; test: compilation of primary patient-derived organoids; format: cell-based, human
[5] = 3 μM AZD-0284 + 0.025 nM gemcitabine
[6] = 6 μM AZD-0284 + 0.025 nM gemcitabine
[7] = 12 μM AZD-0284 + 0.025 nM gemcitabine
[8] = AZD-0284 90 mg/kg once daily + gemcitabine 25 mg/kg once weekly, 3 weeks
[9] = 30 mg/kg JTE-151 once daily for about 3 weeks (FIG. 52)
[10] = 90 mg/kg JTE-151, 3 weeks, compilation (FIG. 57)
[11] = 90 mg/kg JTE-151, 3 weeks, individual experiments (FIGS. 53-55)
[12] = JTE-151 at either 30 mg/kg or 90 mg/kg, 3 weeks (FIG. 58)

CC(=O)N1Cc2cc(S(C)(=O)=O)ccc2[C@@H]1C(=O)Nc1ccc(C(O)(C(F)(F)F)C(F)(F)F)cc1 [AZD-0284]
decrease in organoid volume compared to control (KP^f/fC organoids; [5]): 3.72 fold
organoid growth in volume (KP^f/fC organoids; 3 μM AZD-0284 in combination with 0.02 nM gemcitabine): visibly decreased; also recorded: inhibited
decrease in organoid volume compared to control (KP^f/fC organoids; [6]): 5.81 fold
organoid volume (KP^f/fC organoids; 6 μM AZD-0284 alone): visibly reduced; also recorded: inhibited
organoid volume (KP^f/fC organoids; 6 μM AZD-0284 and 0.025 nM gemcitabine combination): visibly reduced; also recorded: inhibited
decrease in organoid volume compared to control (KP^f/fC organoids; [7]): 10.53 fold
organoid growth (KP^f/fC organoids; AZD-0284 alone, 6 μM or 12 μM (FIG. 32)): significant inhibitory effect
decrease in organoid volume compared to control [1, 5]: 2.81 fold
organoid volume ([1]; 3 μM AZD-0284 and 0.04 nM gemcitabine): significant reduction; also recorded: significant inhibition
decrease in organoid volume compared to control [1, 6]: 4.72 fold
organoid growth ([1]; 6 μM AZD-0284 alone): visibly inhibited
organoid growth ([1]; 6 μM AZD-0284 in combination with 0.025 nM gemcitabine): visibly inhibited
decrease in organoid volume compared to control [1, 7]: 6.90 fold
organoid volume ([1]; AZD-0284 alone, 6 μM or 12 μM (FIG. 37)): significantly reduced
EpCam+ tumor epithelial cells ([2]; 90 mg/kg AZD-0284 alone): loss
EpCam+/CD133+ tumor stem cells ([2]; 90 mg/kg AZD-0284 alone): loss
cell number ([2]; 90 mg/kg AZD-0284 alone): lower
tumor mass ([2]; 90 mg/kg AZD-0284 alone): lower
EpCam+ tumor epithelial cells [2, 8]: loss
EpCam+/CD133+ tumor stem cells [2, 8]: loss
cell number [2, 8]: lower
organoid volume ([3]; 3 μM AZD-0284 + 0.05 nM gemcitabine): significant reduction; also recorded: effectively inhibited
organoid volume ([3]; 3 μM AZD-0284 alone): significant reduction; also recorded: effectively inhibited
organoid volume ([3]; 6 μM AZD-0284 + 0.05 nM gemcitabine): significant reduction; also recorded: effectively inhibited
organoid volume ([3]; 6 μM AZD-0284 alone): significant reduction; also recorded: effectively inhibited
organoid growth ([4]; AZD-0284 at 3 μM and more so at 6 μM, PDX1356 and PDX1535 (FIG. 40)): significantly inhibited

Cc1ccc(NC(=O)C[C@H](CCC(=O)O)c2noc([C@H]3C[C@@H](CC(C)(C)C)C3)c2C2CC2)c(Cl)c1 [JTE-151, (4S)-6-[(2-chloro-4-methylphenyl)amino]-4-{4-cyclopropyl-5-[cis-3-(2,2-dimethylpropyl)cyclobutyl]isoxazol-3-yl}-6-oxohexanoic acid]
organoid volume (KP^f/fC organoids; JTE-151 at 0.003 μM and 0.03 μM): reduced organoid volume, although not at a statistically significant level
organoid growth (KP^f/fC organoids; JTE-151 at 0.3 μM, 3 μM, 6 μM, and 9 μM): significantly inhibited
organoid volume ([1]; 3 μM JTE-151 alone (FIG. 63)): visibly reduced; also recorded: inhibited
organoid volume ([1]; 3 μM JTE-151 and 0.05 nM gemcitabine combination (FIG. 63)): visibly reduced; also recorded: inhibited
organoid growth ([1]; JTE-151 alone at 0.3 μM, 1 μM, and 3 μM (FIG. 64)): significant inhibition
EpCam+ tumor epithelial cells [2, 9]: decrease in EpCam+ tumor epithelial cells was statistically significant
cell number [2, 9]: reduced
EpCam+ tumor epithelial cells [2, 10]: loss
cell number [2, 10]: reduced
EpCam+ tumor epithelial cells [2, 11]: decreased
EpCam+/CD133+ tumor stem cells [2, 11]: decreased
change of cell number in the tumor ([2]; 120 mg/kg JTE-151 regimen, mice that responded): varied
tumor mass ([2]; JTE-151 at 90 mg/kg (FIG. 58)): significantly reduced
EpCam+ tumor epithelial cells [2, 12]: loss
cell number [2, 12]: reduced
organoid growth in volume ([3]; 0.3 μM JTE-151 + 0.05 nM gemcitabine): visibly decreased; also recorded: inhibited
organoid growth in volume ([3]; 0.3 μM JTE-151 alone): visibly decreased; also recorded: inhibited
organoid volume ([3]; 3 μM JTE-151 + 0.05 nM gemcitabine): visibly reduced; also recorded: inhibited
organoid volume ([3]; 3 μM JTE-151 alone): visibly reduced; also recorded: inhibited
organoid growth ([4]; JTE-151 at 0.3 μM and more so at 3 μM, PDX1356, PDX1535, PDX202, PDX204 (FIG. 68)): significantly inhibited

OC(c1ccc(-c2ccc(CN3CCN(Cc4ccncc4)CC3)cc2)c(F)c1)(C(F)(F)F)C(F)(F)F [SR2211]
organoid formation (KP^f/fC organoids; SR2211 vs vehicle): decreased
